Measurements: patent publication US9498466B2, “Pyrrole inhibitors of S-nitrosoglutathione reductase as therapeutic agents” (Nivalis Therapeutics, Inc., priority 2008, dated 2016)

Columns and labels:
[1] = system: mouse model of ovalbumin (OVA)-induced asthma; experiment: Experimental asthma model: pulmonary function testing (Penh) after MCh challenge; assay type: in vivo; settings: read-out: area under the curve (AUC) for Penh response reported as percent of vehicle control
Protocol: A mouse model of ovalbumin (OVA)-induced asthma was used to screen GSNOR inhibitors for efficacy against methacholine (MCh)-induced bronchoconstriction/airway hyper-reactivity. […] Efficacy of GSNOR inhibitors were assessed using a prophylactic protocol in which GSNOR inhibitors were administered prior to challenge with MCh. Bronchoconstriction in response to challenge with increasing doses of MCh was assessed using whole body plethysmography (Penh; Buxco). […] The effect of GSNOR inhibitors were compared to vehicles and to Combivent (inhaled; IH) as the positive control. […]
In vivo airway responsiveness to methacholine was measured 24 h after the last OVA challenge in conscious, freely moving, spontaneously breathing mice with whole body plethysmography using a Buxco chamber (Wilmington, N.C.). […] The degree of bronchoconstriction was expressed as enhanced pause (Penh), a calculated dimensionless value, which correlates with the measurement of airway resistance, impedance, and intrapleural pressure in the same mouse. Penh readings were taken and averaged for 4 min. after each nebulization challenge. Penh was calculated as follows: Penh enh=[(Te/Tr−1)×(PEF/PIF)], where Te is expiration time, Tr is relaxation time, PEF is peak expiratory flow, and PIF is peak inspiratory flow×0.67 coefficient. […]

[2] = system: OVA sensitized mice; experiment: GSNOR inhibition assay in an in vivo animal model: OVA mouse model of asthma, methacholine challenge, Penh; settings: 1 mg/kg, 10 mg/kg or 30 mg/kg intravenously at 24 hours prior
Protocol: In an effort to determine if similar observations would manifest if GSNOR were inhibited pharmacologically by a GSNOR inhibitor, an OVA mouse model (i.e., the wild-type model of Que et al.) was used. In this study, OVA sensitized mice were administered 1 mg/kg, 10 mg/kg or 30 mg/kg of Compound 1 intravenously at 24 hours prior to being placed in a whole body plethysmograph (Buxco Research Systems, Wilmington, N.C.) and provided with fresh air.
Subject animals were then challenged with an aerosol of increasing dosages of the bronchoconstrictive agent methacholine, a pharmacologic agent commonly used in determining the degree of bronchial hyper-reactivity in experimental subjects. In this study mice were exposed to an increasing concentration of methacholine, each dose being presented for 3 minutes, during which time readings were taken. Doses of methacholine were 0 mg/ml, 5 mg/ml, 20 mg/ml, and 50 mg/ml. The degree of bronchial hyper-reactivity was measured as the ‘Enhanced Pause’ (Penh), a unit-less index of airway hyper-reactivity (Dohi et al., Lab Invest. 79(12):1559-1571, 1999).

Structure (SMILES) | response vs control in vivo at 0.1 mg/kg ([1]; single IV dose of 0.1 mg/kg at 24 h prior to MCh) [%] | response vs control in vivo at 1 mg/kg ([1]; single IV dose of 1 mg/kg at 24 h prior to MCh) [%] | broncho-constrictive responses to methacholine (Penh) compared with vehicle-only dosed animals [2]
Cc1cc(C(N)=O)ccc1-n1c(CCC(=O)O)ccc1-c1ccc(Br)cc1 [Compound 7, 3-(5-(4-bromophenyl)-1-(4-carbamoyl-2-methylphenyl)-1H-pyrrol-2-yl)propanoic acid] | 56.1 ± 2.2 | 50.4 ± 3.7 | 
Cc1cc(C(N)=O)ccc1-n1c(CCC(=O)O)ccc1-c1ccc(-n2ccnc2)cc1 [Compound 1, 3-(5-(4-(1H-imidazol-1-yl)phenyl)-1-(4-carbamoyl-2-methylphenyl)-1H-pyrrol-2-yl)propanoic acid] |  |  | lower broncho-constrictive responses
